Measured values published in patent US4035481A, “Antibiotic A-28086 and process for production thereof” (Eli Lilly and Company, priority 1976, dated 1977).
Converted amounts (≈) assume the structure as drawn.

What was measured:
[1] = Microbiological activity of A-28086-I
rumen flora = test: In vitro rumen fluid incubation, volatile fatty acid production; parameters: species or system steer; conditions: 1 ppm in rumen fluid, 16 hours at 38° C
From the text: As discussed hereinabove, efficiency of carbohydrate utilization in ruminants is increased by treatments which stimulate the animal's rumen flora to produce propionate compounds rather than acetate or butyrate compounds. The efficiency of feed use can be monitored by observing the production and concentration of propionate compounds in the rumen, using the following methods:
Rumen fluid is obtained from a steer with a surgically-installed fistula opening into the rumen. The steer is maintained on a high-grain ration. A sample of rumen fluid is strained through four layers of cheesecloth, and the filtrate is collected. The particulate matter retained by the cheesecloth is resuspended in enough physiological buffer to return it to the original volume of the rumen fluid, and this suspension is strained again. The buffer used has the following composition:
The two filtrates are combined and allowed to stand until particulate matter separates to the top. The clear layer is separated, diluted with the same buffer (1:1) and then adjusted to between pH 6.8 to 7.0.
The diluted rumen fluid (10 ml) is placed in a 25-ml flask with 40 mg of the above-described feed, an additional 1 mg of soybean protein, and the compound to be tested. Four replicate flasks are used per treatment. Two sets of four control flasks each are also employed. A zero-time control and an incubated 16-hour control are used. All test flasks are incubated for 16 hours at 38° C. […] The samples are allowed to settle, and the supernatants are analyzed by gas chromatography for propionate, acetate, and butyrate compounds.

[2] = Electrometric titration (pKa of titratable group); conditions: 80% aqueous dimethylformamide
[3] = Acute toxicity in mice, intraperitoneal; conditions: mouse, in vivo, ip
[4] = test system: Saccharomyces pastorianum ATCC2366; test: Disc-diffusion zone of inhibition, Saccharomyces pastorianum ATCC2366; type: cell-based
Eimeria brunetti = test: Anticoccidial activity in chicks challenged with Eimeria brunetti (Table IX); type: in vivo, broiler cockerels; conditions: 0.005 % in feed
From the text: ^1 Four replicates, 5 broiler cockerels each

[5] = test system: Transmissible Gastro-enteritis virus; type: cell-based; conditions: tissue-culture test
M. hyosynoviae = test: In vitro broth-dilution MIC, Mycoplasma; type: cell-based, Mycoplasma hyosynoviae
From the text: (§1) Activity against Mycoplasma is another useful aspect of the antimicrobial activity of the A-28086 compounds. Mycoplasma species, also known as pleuropneumonia-like (PPLO) organisms, are pathogenic to man and various animals. Agents active against PPLO organisms are especially needed by the poultry industry. The minimal inhibitory concentrations (MIC) of antibiotic A-28086 factor A against various Mycoplasma species, as determined by in vitro broth-dilution studies, are summarized in Table VII below: […]

[6] = Solubility in organic solvents and water; type: physicochemical
Staphylococcus aureus = test: Disc-diffusion zone of inhibition, Staphylococcus aureus; type: cell-based; conditions: 6 mm pads, 1 mg/ml
M. synoviae = test: In vitro broth-dilution MIC, Mycoplasma; type: cell-based; conditions: Mycoplasmopsis synoviae
From the text: as §1

M. gallisepticum = test: In vitro broth-dilution MIC, Mycoplasma; type: cell-based; conditions: Mycoplasmoides gallisepticum
From the text: as §1

M. hyorhinis = test: In vitro broth-dilution MIC, Mycoplasma; type: cell-based; conditions: Mesomycoplasma hyorhinis
From the text: as §1

Candida tropicalis = test: Disc-diffusion zone of inhibition, Candida tropicalis; type: cell-based; conditions: 6 mm pads, 1 mg/ml
sheep = test: Feed-utilization efficiency in sheep; type: in vivo; conditions: 56 days
Clostridium perfringens = test: microbe, parasite or virus in culture; type: cell-based; conditions: 24 h
M. hypopneumoniae = test: In vitro broth-dilution MIC, Mycoplasma; type: cell-based, Mycoplasma hypopneumoniae
From the text: as §1

[7] = test system: Mycobacterium avium ATCC7992; test: Disc-diffusion zone of inhibition, Mycobacterium avium ATCC7992; type: cell-based; conditions: 6 mm pads, 1 mg/ml
Sarcina lutea ATCC9341 = test: Disc-diffusion zone of inhibition, Sarcina lutea ATCC9341; type: cell-based; conditions: Micrococcus luteus, 6 mm pads, 1 mg/ml
[8] = test system: Bacillus subtilis ATCC6633; test: Disc-diffusion zone of inhibition, Bacillus subtilis ATCC6633; type: cell-based; conditions: 6 mm pads, 1 mg/ml
Clostridium ramosum = test: Agar-dilution MIC, anaerobic bacteria; type: cell-based; conditions: Thomasclavelia ramosa, 24-hour incubation
Procedure: (§2) The minimal inhibitory concentrations (MIC) at which A-28086 factor A inhibits various anaerobic bacteria, determined by standard agar-dilution assay, are summarized in Table VI. Endpoints were read after 24-hour incubation.

Clostridium inocuum = test: Agar-dilution MIC, anaerobic bacteria; type: cell-based; conditions: 24-hour incubation
Procedure: as §2

[9] = test system: Bacteroides fragilis ssp. thetaiotacmicron; test: Agar-dilution MIC, anaerobic bacteria; type: cell-based; conditions: 24 h
Procedure: as §2

Actinomyces bovis = test: Agar-dilution MIC, anaerobic bacteria; type: cell-based; conditions: 24-hour incubation
Procedure: as §2

[10] = test system: Bacteroides fragilis ssp. fragilis; test: Agar-dilution MIC, anaerobic bacteria; type: cell-based; conditions: 24-hour incubation
Procedure: as §2

Peptococcus anaerobius = test: Agar-dilution MIC, anaerobic bacteria; type: cell-based; conditions: 24-hour incubation
Procedure: as §2

[11] = test system: Fusobacterium necrophorum; test: Agar-dilution MIC, anaerobic bacteria; type: cell-based; conditions: 24-hour incubation
Procedure: as §2

Fusobacterium symbiosum = test: Agar-dilution MIC, anaerobic bacteria; type: cell-based; conditions: 24-hour incubation
Procedure: as §2

[12] = test system: Peptostreptococcus intermedius; test: Agar-dilution MIC, anaerobic bacteria; type: cell-based; conditions: 24-hour incubation
Procedure: as §2

Eubacterium aerofaciens = test: Agar-dilution MIC, anaerobic bacteria; type: cell-based; conditions: Collinsella aerofaciens, 24-hour incubation
Procedure: as §2

Clostridium septicum = test: Agar-dilution MIC, anaerobic bacteria; type: cell-based; conditions: 24-hour incubation
Procedure: as §2

Veillonella alcalescens = test: Agar-dilution MIC, anaerobic bacteria; type: cell-based; conditions: Veillonella parvula, 24-hour incubation
Procedure: as §2

[13] = test system: Propionibacterium acnes 44; test: Agar-dilution MIC, anaerobic bacteria; type: cell-based; conditions: Cutibacterium acnes, 24-hour incubation
Procedure: as §2

[14] = test system: Bacteroides fragilis ssp. vulgatis 1211; test: Agar-dilution MIC, anaerobic bacteria; type: cell-based; conditions: 24-hour incubation
Procedure: as §2

[15] = test system: Clostridium septicum bovine; test: Agar-dilution MIC, anaerobic bacteria; type: cell-based; conditions: 24-hour incubation
Procedure: as §2

[16] = test system: Propionibacterium acnes 79; test: Agar-dilution MIC, anaerobic bacteria; type: cell-based; conditions: Cutibacterium acnes, 24-hour incubation
Procedure: as §2

[17] = test system: Bacteroides fragilis ssp. vulgatis No. 1563; test: Agar-dilution MIC, anaerobic bacteria; type: cell-based; conditions: 24-hour incubation
Procedure: as §2

Fusarium moniliforme = test: Disc-diffusion zone of inhibition, Fusarium moniliforme; type: cell-based; conditions: Fusarium verticillioides; 6 mm pads, 1 mg/ml

CCC(C(=O)OC)C1OC(C(C)C(O)C(C)C(=O)C(CC)C2OC3(C=CC(O)C4(CCC(C)(C5CCC(O)(CC)C(C)O5)O4)O3)C(C)CC2C)C(C)CC1C (centres unmarked) [A-28086-I]
microbiological activity [1]: not microbiologically active

CCC(C(=O)O)C1OC(C(C)C(O)C(C)C(=O)C(CC)C2OC3(C=CC(OC(C)=O)C4(CCC(C)(C5CCC(O)(CC)C(C)O5)O4)O3)C(C)CC2C)C(C)CC1C (centres unmarked) [A-28086 factor A acetyl ester derivative]
Ratio of Treated to Control, Molar % acetate (rumen flora): 0.79 | Ratio of Treated to Control, Molar % butyrate (rumen flora): 0.76 | Ratio of Treated to Control, Total VFA mM/1 (rumen flora): 1.04 | pKa [2]: 8.5

CCCCCC(=O)OC1C=CC2(OC(C(CC)C(=O)C(C)C(O)C(C)C3OC(C(CC)C(=O)O)C(C)CC3C)C(C)CC2C)OC12CCC(C)(C1CCC(O)(CC)C(C)O1)O2 (centres unmarked)
Ratio of Treated to Control, Molar % acetate (rumen flora): 0.86 | Ratio of Treated to Control, Molar % butyrate (rumen flora): 0.97 | Ratio of Treated to Control, Total VFA mM/1 (rumen flora): 0.99

CCC(C(=O)O)C1OC(C(C)C(O)C(C)C(=O)C(CC)C2OC3(C=CC(O)C4(CCC(C)(C5CCC(O)(CC)C(C)O5)O4)O3)C(C)CC2C)C(C)CC1C (centres unmarked) [A-28086 factor A]
LD50 [3]: 7.15 mg/kg | Ratio of Treated to Control, Molar % acetate (rumen flora): 0.94 | Ratio of Treated to Control, Molar % butyrate (rumen flora): 0.87 | Ratio of Treated to Control, Total VFA mM/1 (rumen flora): 1.26 | zone of inhibition at 1000 µg/mL [4]: 17 mm | Average Lesion Score (Eimeria brunetti): 1.2 | Oocysts Passed Percent Reduction (Eimeria brunetti): 58% | Percent Mortality (Eimeria brunetti): 0% | Percent Weight Gain (Eimeria brunetti): 88% | antiviral activity [5]: active | MIC (M. hyosynoviae): 6.25 µg/mL (≈ 8.17 µM) | solubility in organic solvents ([6]; methanol, ethanol, dimethylformamide, dimethyl sulfoxide, ethyl acetate, chloroform, acetone, benzene): soluble | solubility in nonpolar organic solvents ([6]; such as hexane): only slightly soluble | solubility in water ([6]; water): insoluble | zone of inhibition at 1000 µg/mL (Staphylococcus aureus): 19 mm | MIC (M. synoviae): 6.25 µg/mL (≈ 8.17 µM) | MIC (M. gallisepticum): 12.5 µg/mL (≈ 16.3 µM) | MIC (M. hyorhinis): 12.5 µg/mL (≈ 16.3 µM) | pKa [2]: 7.9 | zone of inhibition at 1000 µg/mL (Candida tropicalis): 14 mm | Percent Improvement (sheep; 9 g per ton of feed): 12% | Percent Improvement (sheep; 18 g per ton of feed): 1% | MIC (Clostridium perfringens): < 0.5 µg/mL | MIC (M. hypopneumoniae): 6.25 µg/mL (≈ 8.17 µM) | zone of inhibition at 1000 µg/mL [7]: 12 mm | zone of inhibition at 1000 µg/mL (Sarcina lutea ATCC9341): 26 mm | zone of inhibition at 1000 µg/mL [8]: 28 mm | MIC (Clostridium ramosum): 4 µg/mL (≈ 5.23 µM) | MIC (Clostridium inocuum): < 0.5 µg/mL | MIC [9]: 8 µg/mL (≈ 10.5 µM) | MIC (Actinomyces bovis): < 0.5 µg/mL | MIC [10]: 8 µg/mL (≈ 10.5 µM) | MIC (Peptococcus anaerobius): < 0.5 µg/mL | MIC [11]: 8 µg/mL (≈ 10.5 µM) | MIC (Fusobacterium symbiosum): < 0.5 µg/mL | MIC [12]: 16 µg/mL (≈ 20.9 µM) | MIC (Eubacterium aerofaciens): 1 µg/mL (≈ 1.31 µM) | MIC (Clostridium septicum): < 0.5 µg/mL | MIC (Veillonella alcalescens): 16 µg/mL (≈ 20.9 µM) | MIC [13]: 16 µg/mL (≈ 20.9 µM) | MIC [14]: 2 µg/mL (≈ 2.61 µM) | MIC [15]: < 0.5 µg/mL | MIC [16]: 2 µg/mL (≈ 2.61 µM) | MIC [17]: 8 µg/mL (≈ 10.5 µM) | zone of inhibition at 1000 µg/mL (Fusarium moniliforme): 12 mm

CCCCC(=O)OC1C=CC2(OC(C(CC)C(=O)C(C)C(O)C(C)C3OC(C(CC)C(=O)O)C(C)CC3C)C(C)CC2C)OC12CCC(C)(C1CCC(O)(CC)C(C)O1)O2 (centres unmarked)
Ratio of Treated to Control, Molar % acetate (rumen flora): 0.92 | Ratio of Treated to Control, Molar % butyrate (rumen flora): 0.79 | Ratio of Treated to Control, Total VFA mM/1 (rumen flora): 1.18

CCC(=O)OC1C=CC2(OC(C(CC)C(=O)C(C)C(O)C(C)C3OC(C(CC)C(=O)O)C(C)CC3C)C(C)CC2C)OC12CCC(C)(C1CCC(O)(CC)C(C)O1)O2 (centres unmarked)
Ratio of Treated to Control, Molar % acetate (rumen flora): 0.90 | Ratio of Treated to Control, Molar % butyrate (rumen flora): 0.68 | Ratio of Treated to Control, Total VFA mM/1 (rumen flora): 1.25

CCCC(=O)OC1C=CC2(OC(C(CC)C(=O)C(C)C(O)C(C)C3OC(C(CC)C(=O)O)C(C)CC3C)C(C)CC2C)OC12CCC(C)(C1CCC(O)(CC)C(C)O1)O2 (centres unmarked)
Ratio of Treated to Control, Molar % acetate (rumen flora): 0.91 | Ratio of Treated to Control, Molar % butyrate (rumen flora): 0.81 | Ratio of Treated to Control, Total VFA mM/1 (rumen flora): 1.19
